Laboratory results: patent US7008905B2, “Method of combating undesired plant growth on cereals” (BASF Aktiengesellschaft, priority 2000, dated 2006)

Columns and labels:
Format in all cases: in vivo
[1] = tested on: Triticum aestivum variety “Kanzler”; assay: Post-emergence test, selectivity; conditions: 2–4 weeks after treatment, rating 0-100 (100=death), Table 6
Procedure: (§1) These acetone solutions are diluted with water and the resulting formulations applied at dosage levels equivalent of about 0.030 to 0.240 kg per hectare of test compound per pot. After spraying the plants are placed an greenhouse benches and are cared for in the usual manner, commensurate with conventional greenhouse practices. From 2 to 4 weeks after treatment, the seedling plants are examined and rated according to the rating system provided above. A rating 0 indicates growth as untreated control, a rating 100 indicates death.

[2] = tested on: Triticum aestivum variety “Monopol”; assay: Post-emergence test, selectivity; conditions: 2–4 weeks after treatment, rating 0-100 (100=death), Table 6
Procedure: as §1

[3] = tested on: Galium aparine; assay: Pre-emergence test, weed control; conditions: 3 weeks after treatment, rating 0-100 (100=death), Table 1
Summary of the method: (§2)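 Visual 0–100 rating, three weeks after treatment, where 0 equals untreated sown soil and 100 means plant death. Sown horticultural loam received an aqueous dilution of acetone solution (0.4% w/w alkylphenol/ethylene oxide condensate) at 15–240 g/ha, 900 l/ha spray volume.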

[4] = tested on: Alopecurus myosuroides; assay: Pre-emergence test, weed control; conditions: 3 weeks after treatment, rating 0-100 (100=death), Table 1
Summary of the method: as §2

[5] = tested on: Apera spica-venti; assay: Pre-emergence test, weed control; conditions: 3 weeks after treatment, rating 0-100 (100=death), Table 1
Summary of the method: as §2

[6] = tested on: Polygonum convolvulus; assay: Pre-emergence test, weed control; conditions: 3 weeks after treatment, rating 0-100 (100=death), Table 1
Summary of the method: as §2

[7] = tested on: Setaria viridis; assay: Pre-emergence test, weed control; conditions: 3 weeks after treatment, rating 0-100 (100=death), Table 1
Summary of the method: as §2

[8] = tested on: Lamium purpureum; assay: Pre-emergence test, weed control; conditions: 3 weeks after treatment, rating 0-100 (100=death), Table 1
Summary of the method: as §2

[9] = tested on: Veronica persica; assay: Pre-emergence test, weed control; conditions: 3 weeks after treatment, rating 0-100 (100=death), Table 1
Summary of the method: as §2

[10] = tested on: Matricaria inodora; assay: Pre-emergence test, weed control; conditions: 3 weeks after treatment, rating 0-100 (100=death), Table 1
Summary of the method: as §2

[11] = tested on: Poa annua; assay: Pre-emergence test, weed control; conditions: 3 weeks after treatment, rating 0-100 (100=death), Table 1
Summary of the method: as §2

[12] = tested on: Lolium perenne; assay: Pre-emergence test, weed control; conditions: 3 weeks after treatment, rating 0-100 (100=death), Table 1
Summary of the method: as §2

[13] = tested on: Stellaria media; assay: Pre-emergence test, weed control; conditions: 3 weeks after treatment, rating 0-100 (100=death), Table 1
Summary of the method: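 Scores from 0 (growth like untreated control) to 100 (death) were assigned by eye three weeks post-spray, with 10 units approximating a 10% change in effect. Treatment was applied to freshly sown loam at 15 to 240 g active material per hectare.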

[14] = tested on: Hordeum vulgare variety “Mammut”; assay: Pre-emergence test, selectivity; conditions: 3 weeks after treatment, rating 0-100 (100=death), Table 2
Summary of the method: as §2

[15] = tested on: Triticum aestivum variety “Kanzler”; assay: Pre-emergence test, selectivity; conditions: 3 weeks after treatment, rating 0-100 (100=death), Table 2
Summary of the method: as §2

[16] = tested on: HORVW; assay: Pre-emergence test, selectivity; conditions: 3 weeks after treatment, rating 0-100 (100=death), Table 2
Summary of the method: as §2

[17] = tested on: Triticum aestivum variety “Monopol”; assay: Pre-emergence test, selectivity; conditions: 3 weeks after treatment, rating 0-100 (100=death), Table 2
Summary of the method: as §2

[18] = tested on: Setaria viridis; assay: Post-emergence test, weed control; conditions: 2–4 weeks after treatment, rating 0-100 (100=death), Table 5
Procedure: as §1

Cc1cnc(-c2ccc(C(F)(F)F)cc2)nc1Oc1cccc(C(F)(F)F)c1 [REF-1]
TRZAWK rating (Selectivity) ([1]; 0.03 kg/ha): 18
TRZAWK rating (Selectivity) ([1]; 0.06 kg/ha): 25
TRZAWK rating (Selectivity) ([1]; 0.12 kg/ha): 30
TRZAWK rating (Selectivity) ([1]; 0.24 kg/ha): 40
TRZAWM rating (Selectivity) ([2]; 0.03 kg/ha): 15
TRZAWM rating (Selectivity) ([2]; 0.06 kg/ha): 22
TRZAWM rating (Selectivity) ([2]; 0.12 kg/ha): 30
TRZAWM rating (Selectivity) ([2]; 0.24 kg/ha): 45
GALAP weed control rating ([3]; 0.015 kg/ha): 5
GALAP weed control rating ([3]; 0.030 kg/ha): 15
GALAP weed control rating ([3]; 0.060 kg/ha): 50
GALAP weed control rating ([3]; 0.1 kg/ha): 75
GALAP weed control rating ([3]; 0.240 kg/ha): 95
ALOMY weed control rating ([4]; 0.015 kg/ha): 65
ALOMY weed control rating ([4]; 0.030 kg/ha): 92
ALOMY weed control rating ([4]; 0.060 kg/ha): 100
ALOMY weed control rating ([4]; 0.1 kg/ha): 100
ALOMY weed control rating ([4]; 0.240 kg/ha): 100
APESV weed control rating ([5]; 0.015 kg/ha): 100
APESV weed control rating ([5]; 0.030 kg/ha): 100
APESV weed control rating ([5]; 0.060 kg/ha): 100
APESV weed control rating ([5]; 0.1 kg/ha): 100
APESV weed control rating ([5]; 0.240 kg/ha): 100
POLCO weed control rating ([6]; 0.015 kg/ha): 92
POLCO weed control rating ([6]; 0.030 kg/ha): 93
POLCO weed control rating ([6]; 0.060 kg/ha): 100
POLCO weed control rating ([6]; 0.1 kg/ha): 100
POLCO weed control rating ([6]; 0.240 kg/ha): 100
SETVI weed control rating ([7]; 0.015 kg/ha): 93
SETVI weed control rating ([7]; 0.030 kg/ha): 100
SETVI weed control rating ([7]; 0.060 kg/ha): 100
SETVI weed control rating ([7]; 0.1 kg/ha): 100
SETVI weed control rating ([7]; 0.240 kg/ha): 100
LAMPU weed control rating ([8]; 0.015 kg/ha): 100
LAMPU weed control rating ([8]; 0.030 kg/ha): 100
LAMPU weed control rating ([8]; 0.060 kg/ha): 100
LAMPU weed control rating ([8]; 0.1 kg/ha): 100
LAMPU weed control rating ([8]; 0.240 kg/ha): 100
VERPE weed control rating ([9]; 0.015 kg/ha): 100
VERPE weed control rating ([9]; 0.030 kg/ha): 100
VERPE weed control rating ([9]; 0.060 kg/ha): 100
VERPE weed control rating ([9]; 0.1 kg/ha): 100
VERPE weed control rating ([9]; 0.240 kg/ha): 100
MATIN weed control rating ([10]; 0.015 kg/ha): 99
MATIN weed control rating ([10]; 0.030 kg/ha): 99
MATIN weed control rating ([10]; 0.060 kg/ha): 100
MATIN weed control rating ([10]; 0.1 kg/ha): 100
MATIN weed control rating ([10]; 0.240 kg/ha): 100
POAAN weed control rating ([11]; 0.015 kg/ha): 98
POAAN weed control rating ([11]; 0.030 kg/ha): 100
POAAN weed control rating ([11]; 0.060 kg/ha): 100
POAAN weed control rating ([11]; 0.1 kg/ha): 100
POAAN weed control rating ([11]; 0.240 kg/ha): 100
LOLPE weed control rating ([12]; 0.015 kg/ha): 80
LOLPE weed control rating ([12]; 0.030 kg/ha): 95
LOLPE weed control rating ([12]; 0.060 kg/ha): 99
LOLPE weed control rating ([12]; 0.1 kg/ha): 100
LOLPE weed control rating ([12]; 0.240 kg/ha): 100
STEME weed control rating ([13]; 0.030 kg/ha): 90
STEME weed control rating ([13]; 0.060 kg/ha): 100
STEME weed control rating ([13]; 0.1 kg/ha): 100
STEME weed control rating ([13]; 0.240 kg/ha): 100
HORVWM rating (Selectivity) ([14]; 0.015 kg/ha): 25
HORVWM rating (Selectivity) ([14]; 0.030 kg/ha): 45
HORVWM rating (Selectivity) ([14]; 0.060 kg/ha): 45
HORVWM rating (Selectivity) ([14]; 0.120 kg/ha): 60
HORVWM rating (Selectivity) ([14]; 0.240 kg/ha): 65
TRZAWK rating (Selectivity) ([15]; 0.015 kg/ha): 3
TRZAWK rating (Selectivity) ([15]; 0.030 kg/ha): 10
TRZAWK rating (Selectivity) ([15]; 0.060 kg/ha): 25
TRZAWK rating (Selectivity) ([15]; 0.120 kg/ha): 25
TRZAWK rating (Selectivity) ([15]; 0.240 kg/ha): 40
HORVW rating (Selectivity) ([16]; 0.015 kg/ha): 35
HORVW rating (Selectivity) ([16]; 0.030 kg/ha): 45
HORVW rating (Selectivity) ([16]; 0.060 kg/ha): 55
HORVW rating (Selectivity) ([16]; 0.120 kg/ha): 60
HORVW rating (Selectivity) ([16]; 0.240 kg/ha): 65
TRZAWM rating (Selectivity) ([17]; 0.015 kg/ha): 3
TRZAWM rating (Selectivity) ([17]; 0.030 kg/ha): 12
TRZAWM rating (Selectivity) ([17]; 0.060 kg/ha): 25
TRZAWM rating (Selectivity) ([17]; 0.120 kg/ha): 30
TRZAWM rating (Selectivity) ([17]; 0.240 kg/ha): 45
SETVI weed control rating ([18]; 0.030 kg/ha): 99
SETVI weed control rating ([18]; 0.060 kg/ha): 99
SETVI weed control rating ([18]; 0.120 kg/ha): 100
SETVI weed control rating ([18]; 0.240 kg/ha): 100
